Source: ChEMBL document CHEMBL4477250, “Discovery of novel potent imidazo[1,2-b]pyridazine PDE10a inhibitors” (Bioorg Med Chem Lett, 2016)
Active and inactive are the calls of the source. No cut-off for these calls is given here.

Key:
[1] = target: cAMP and cAMP-inhibited cGMP 3',5'-cyclic phosphodiesterase 10A (Homo sapiens, UniProt Q9Y233); experiment: Inhibition of human recombinant full length PDE10A expressed in sf9 cells by scintillation proximity assay
[2] = Ratio of drug level in brain to plasma (unknown origin) after 2 hrs; format: ADME; conditions: brain and plasma; read-out: BPR
Pancreatic islet [3] = experiment: Induction of insulin secretion in human pancreatic islets at 1 uM in presence of glucose; format: functional, cell-based
Rattus norvegicus [4] = experiment: Antidiabetic activity in fasted Sprague-Dawley rat assessed as reduction in blood glucose level at 3 to 30 mg/kg, po administered 3 hrs prior to glucose challenge measured up to 2 hrs by OGTT; format: functional, organism-based
Cytochrome P450 1A2 = target: T1, Cytochrome P450 1A2 (Homo sapiens, UniProt P05177); experiment: Inhibition of recombinant CYP1A2 (unknown origin); format: ADME
T1 sequence (P05177 whole entry): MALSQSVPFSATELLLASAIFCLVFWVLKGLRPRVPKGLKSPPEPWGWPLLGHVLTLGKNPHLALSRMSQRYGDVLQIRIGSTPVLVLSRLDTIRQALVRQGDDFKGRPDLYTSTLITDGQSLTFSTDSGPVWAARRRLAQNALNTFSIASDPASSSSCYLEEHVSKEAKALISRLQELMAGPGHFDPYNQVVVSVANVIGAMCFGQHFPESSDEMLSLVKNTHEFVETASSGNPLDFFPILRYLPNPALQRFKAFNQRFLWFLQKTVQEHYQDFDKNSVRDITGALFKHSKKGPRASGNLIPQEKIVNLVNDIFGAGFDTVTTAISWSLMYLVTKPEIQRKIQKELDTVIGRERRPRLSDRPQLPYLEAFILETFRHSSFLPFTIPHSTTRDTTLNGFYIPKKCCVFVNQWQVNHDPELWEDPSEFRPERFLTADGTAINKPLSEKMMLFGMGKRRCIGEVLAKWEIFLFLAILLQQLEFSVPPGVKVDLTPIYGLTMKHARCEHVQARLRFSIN

[5] = target: High affinity 3',5'-cyclic-AMP phosphodiesterase 7A (Homo sapiens, UniProt Q13946); experiment: Inhibition of human PDE7A
Homo sapiens [6] = species: Homo sapiens; experiment: Selectivity ratio of IC50 for human PDE1B to IC50 for human recombinant full length PDE10A expressed in sf9 cells
[7] = Stability in mouse liver microsomes; format: ADME, Microsome
[8] = Cardiotoxicity in anesthetized guinea pig; format: toxicity, Cavia porcellus
[9] = target: 3',5'-cyclic phosphodiesterase; experiment: Inhibition of human PDE; format: protein assay
Homo sapiens [10] = species: Homo sapiens; experiment: Selectivity ratio of IC50 for human PDE5A to IC50 for human recombinant full length PDE10A expressed in sf9 cells
Cytochrome P450 2C9 = Cytochrome P450 2C9 (Homo sapiens, UniProt P11712); experiment: Inhibition of recombinant CYP2C9 (unknown origin); format: ADME
[11] = Cmax in rat at 10 mg/kg; format: ADME, organism-based; set-up: dose 10 mg/kg; conditions: in vivo
Mus musculus = experiment: Antidiabetic activity in ob/ob mouse assessed as reduction in blood glucose level at 5 to 20 mg/kg, po administered 3 hrs prior to glucose challenge measured up to 2 hrs by OGTT; format: functional, organism-based
[12] = Stability in rat liver microsomes; format: ADME, Microsome
Homo sapiens [13] = species: Homo sapiens; experiment: Selectivity ratio of IC50 for human PDE7A to IC50 for human recombinant full length PDE10A expressed in sf9 cells
[14] = target: cGMP-specific 3',5'-cyclic phosphodiesterase (Homo sapiens, UniProt O76074); experiment: Inhibition of human PDE5A
[15] = target: cGMP-inhibited 3',5'-cyclic phosphodiesterase 3B (Homo sapiens, UniProt Q13370); experiment: Inhibition of human PDE3B
[16] = Clearance in rat at 10 mg/kg; format: ADME, organism-based; conditions: in vivo
Cytochrome P450 2C19 = Cytochrome P450 2C19 (Homo sapiens, UniProt P33261); experiment: Inhibition of recombinant CYP2C19 (unknown origin); format: ADME
Homo sapiens [17] = species: Homo sapiens; experiment: Selectivity ratio of IC50 for human PDE2A to IC50 for human recombinant full length PDE10A expressed in sf9 cells
Cytochrome P450 3A4 = Cytochrome P450 3A4 (Homo sapiens, UniProt P08684); experiment: Inhibition of recombinant CYP3A4 (unknown origin); format: ADME
Homo sapiens [18] = species: Homo sapiens; experiment: Selectivity ratio of IC50 for human PDE3B to IC50 for human recombinant full length PDE10A expressed in sf9 cells
[19] = Stability in human liver microsomes; format: ADME, Microsome
[20] = target: 3',5'-cyclic-AMP phosphodiesterase 4D (Homo sapiens, UniProt Q08499); experiment: Inhibition of human PDE4D
Rattus norvegicus [21] = species: Rattus norvegicus; experiment: Induction of insulin secretion in rat pancreatic islets at 0.1 to 3 uM in presence of 12 mM glucose; format: functional
[22] = Stability in dog liver microsomes; format: ADME, Canis lupus familiaris, Microsome
[23] = Volume of distribution in steady state in rat at 10 mg/kg; format: ADME, organism-based; conditions: in vivo, read-out: Vdss
[24] = Stability in cynomolgus monkey liver microsomes; format: ADME, Macaca fascicularis, Microsome
Rattus norvegicus [25] = species: Rattus norvegicus; experiment: Induction of insulin secretion in rat pancreatic islets at 0.1 to 3 uM in presence of 3 mM glucose; format: functional
[26] = Half life in rat at 10 mg/kg, iv; format: ADME, organism-based; conditions: in vivo
Homo sapiens [27] = species: Homo sapiens; experiment: Selectivity ratio of IC50 for human PDE4D to IC50 for human recombinant full length PDE10A expressed in sf9 cells
[28] = target: Dual specificity calcium/calmodulin-dependent 3',5'-cyclic nucleotide phosphodiesterase 1B (Homo sapiens, UniProt Q01064); experiment: Inhibition of human PDE1B
[29] = target: cGMP-dependent 3',5'-cyclic phosphodiesterase (Homo sapiens, UniProt O00408); experiment: Inhibition of human PDE2A
[30] = target: Voltage-gated inwardly rectifying potassium channel KCNH2 (Homo sapiens, UniProt Q12809); experiment: Inhibition of human ERG
[31] = Oral bioavailability in rat at 10 mg/kg; format: ADME, organism-based; conditions: in vivo
Homo sapiens [32] = species: Homo sapiens; experiment: Selectivity ratio of IC50 for human PDE9A to IC50 for human recombinant full length PDE10A expressed in sf9 cells
Cytochrome P450 2D6 = Cytochrome P450 2D6 (Homo sapiens, UniProt P10635); experiment: Inhibition of recombinant CYP2D6 (unknown origin); format: ADME
[33] = target: High affinity cGMP-specific 3',5'-cyclic phosphodiesterase 9A (Homo sapiens, UniProt O76083); experiment: Inhibition of human PDE9A
Pancreatic islet [34] = experiment: Induction of insulin secretion in human pancreatic islets at 15 mM in presence of glucose; format: functional, cell-based
Pancreatic islet [35] = experiment: Induction of insulin secretion in human pancreatic islets at 30 mM in presence of glucose; format: functional, cell-based
Pancreatic islet [36] = experiment: Induction of insulin secretion in human pancreatic islets at 2 to 12 mM; format: functional, cell-based

Chain of cAMP and cAMP-inhibited cGMP 3',5'-cyclic phosphodiesterase 10A (Q9Y233 whole entry): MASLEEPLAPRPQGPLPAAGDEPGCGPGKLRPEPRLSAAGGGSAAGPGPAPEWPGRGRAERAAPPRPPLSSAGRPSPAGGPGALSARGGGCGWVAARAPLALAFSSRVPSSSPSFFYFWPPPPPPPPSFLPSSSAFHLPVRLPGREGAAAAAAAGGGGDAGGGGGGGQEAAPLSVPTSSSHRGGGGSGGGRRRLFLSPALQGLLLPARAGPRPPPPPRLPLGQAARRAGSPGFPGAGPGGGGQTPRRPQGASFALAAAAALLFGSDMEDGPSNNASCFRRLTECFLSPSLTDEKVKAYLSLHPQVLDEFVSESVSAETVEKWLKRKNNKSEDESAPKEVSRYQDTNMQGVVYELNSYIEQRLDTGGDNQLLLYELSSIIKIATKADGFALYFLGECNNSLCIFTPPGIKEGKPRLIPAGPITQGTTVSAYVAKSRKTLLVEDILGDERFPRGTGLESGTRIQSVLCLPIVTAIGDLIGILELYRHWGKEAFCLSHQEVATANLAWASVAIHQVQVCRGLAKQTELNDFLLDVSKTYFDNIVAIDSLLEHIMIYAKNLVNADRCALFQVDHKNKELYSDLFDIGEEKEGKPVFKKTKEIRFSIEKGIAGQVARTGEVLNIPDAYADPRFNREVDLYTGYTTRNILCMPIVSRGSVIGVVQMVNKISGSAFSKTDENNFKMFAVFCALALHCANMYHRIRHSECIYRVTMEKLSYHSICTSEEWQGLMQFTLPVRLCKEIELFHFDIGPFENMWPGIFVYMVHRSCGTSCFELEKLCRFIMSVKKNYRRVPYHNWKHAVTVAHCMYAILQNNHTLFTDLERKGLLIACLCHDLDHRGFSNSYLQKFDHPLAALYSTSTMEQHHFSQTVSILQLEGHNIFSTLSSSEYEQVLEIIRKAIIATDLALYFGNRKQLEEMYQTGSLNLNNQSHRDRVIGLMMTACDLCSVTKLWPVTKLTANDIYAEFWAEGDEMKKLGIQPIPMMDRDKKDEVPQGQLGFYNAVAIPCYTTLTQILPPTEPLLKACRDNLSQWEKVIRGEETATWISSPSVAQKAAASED
Chain of Voltage-gated inwardly rectifying potassium channel KCNH2 (Q12809 whole entry): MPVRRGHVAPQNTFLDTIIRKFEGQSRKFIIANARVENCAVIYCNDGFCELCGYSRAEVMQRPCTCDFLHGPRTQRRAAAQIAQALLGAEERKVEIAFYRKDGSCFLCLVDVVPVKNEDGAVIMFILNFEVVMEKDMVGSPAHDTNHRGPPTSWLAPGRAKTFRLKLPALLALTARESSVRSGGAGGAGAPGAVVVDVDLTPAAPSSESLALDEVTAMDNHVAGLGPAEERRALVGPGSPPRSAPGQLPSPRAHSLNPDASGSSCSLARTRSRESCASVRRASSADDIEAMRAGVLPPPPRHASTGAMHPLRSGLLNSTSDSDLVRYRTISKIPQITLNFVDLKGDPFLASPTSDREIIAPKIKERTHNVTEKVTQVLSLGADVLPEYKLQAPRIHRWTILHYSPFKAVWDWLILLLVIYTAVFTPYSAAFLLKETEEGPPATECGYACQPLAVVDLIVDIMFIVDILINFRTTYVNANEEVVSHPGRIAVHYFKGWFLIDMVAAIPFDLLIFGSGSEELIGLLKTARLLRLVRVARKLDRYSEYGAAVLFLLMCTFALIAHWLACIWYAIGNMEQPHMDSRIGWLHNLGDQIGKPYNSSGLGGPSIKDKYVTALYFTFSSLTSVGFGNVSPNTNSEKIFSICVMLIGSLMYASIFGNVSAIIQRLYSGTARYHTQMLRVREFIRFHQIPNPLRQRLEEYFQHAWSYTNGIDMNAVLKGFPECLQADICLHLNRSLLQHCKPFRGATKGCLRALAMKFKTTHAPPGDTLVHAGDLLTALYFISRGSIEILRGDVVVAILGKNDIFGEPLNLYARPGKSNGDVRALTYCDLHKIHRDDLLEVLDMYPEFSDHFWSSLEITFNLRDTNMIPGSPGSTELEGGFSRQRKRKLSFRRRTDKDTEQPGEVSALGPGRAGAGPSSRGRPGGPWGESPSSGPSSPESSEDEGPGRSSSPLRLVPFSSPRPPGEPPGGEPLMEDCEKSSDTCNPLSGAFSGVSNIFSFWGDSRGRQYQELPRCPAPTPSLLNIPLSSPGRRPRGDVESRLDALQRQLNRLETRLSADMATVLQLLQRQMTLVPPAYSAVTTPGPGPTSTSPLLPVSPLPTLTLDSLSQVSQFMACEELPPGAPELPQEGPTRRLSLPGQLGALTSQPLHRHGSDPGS
Chain of Dual specificity calcium/calmodulin-dependent 3',5'-cyclic nucleotide phosphodiesterase 1B (Q01064 whole entry): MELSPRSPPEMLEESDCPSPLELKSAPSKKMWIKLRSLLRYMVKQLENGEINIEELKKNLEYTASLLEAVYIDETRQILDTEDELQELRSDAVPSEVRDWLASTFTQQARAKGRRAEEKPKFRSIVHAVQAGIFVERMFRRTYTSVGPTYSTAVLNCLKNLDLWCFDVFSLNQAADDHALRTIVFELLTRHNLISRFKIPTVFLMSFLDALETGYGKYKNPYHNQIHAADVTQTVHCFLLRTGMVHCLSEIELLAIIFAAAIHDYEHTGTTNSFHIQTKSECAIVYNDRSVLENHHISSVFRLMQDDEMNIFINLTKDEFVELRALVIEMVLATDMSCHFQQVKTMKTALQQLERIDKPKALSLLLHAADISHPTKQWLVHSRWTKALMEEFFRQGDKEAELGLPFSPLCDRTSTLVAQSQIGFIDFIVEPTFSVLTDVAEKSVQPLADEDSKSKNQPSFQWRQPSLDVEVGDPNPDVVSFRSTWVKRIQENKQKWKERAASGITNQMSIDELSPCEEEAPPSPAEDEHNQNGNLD
Chain of Cytochrome P450 3A4 (P08684 whole entry): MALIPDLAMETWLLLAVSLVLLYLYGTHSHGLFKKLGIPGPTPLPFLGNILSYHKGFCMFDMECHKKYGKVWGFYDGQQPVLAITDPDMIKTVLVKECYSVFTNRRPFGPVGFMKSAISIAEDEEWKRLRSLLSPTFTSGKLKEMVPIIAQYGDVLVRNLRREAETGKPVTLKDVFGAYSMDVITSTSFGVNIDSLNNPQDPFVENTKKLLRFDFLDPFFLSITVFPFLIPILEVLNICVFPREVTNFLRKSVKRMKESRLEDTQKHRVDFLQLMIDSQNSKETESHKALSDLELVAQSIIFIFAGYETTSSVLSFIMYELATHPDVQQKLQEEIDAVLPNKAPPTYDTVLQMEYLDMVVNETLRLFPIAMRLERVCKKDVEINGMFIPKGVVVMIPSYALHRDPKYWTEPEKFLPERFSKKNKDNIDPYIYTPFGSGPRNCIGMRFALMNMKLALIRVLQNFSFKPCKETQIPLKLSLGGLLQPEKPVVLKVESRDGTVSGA
Chain of High affinity cGMP-specific 3',5'-cyclic phosphodiesterase 9A (O76083 whole entry): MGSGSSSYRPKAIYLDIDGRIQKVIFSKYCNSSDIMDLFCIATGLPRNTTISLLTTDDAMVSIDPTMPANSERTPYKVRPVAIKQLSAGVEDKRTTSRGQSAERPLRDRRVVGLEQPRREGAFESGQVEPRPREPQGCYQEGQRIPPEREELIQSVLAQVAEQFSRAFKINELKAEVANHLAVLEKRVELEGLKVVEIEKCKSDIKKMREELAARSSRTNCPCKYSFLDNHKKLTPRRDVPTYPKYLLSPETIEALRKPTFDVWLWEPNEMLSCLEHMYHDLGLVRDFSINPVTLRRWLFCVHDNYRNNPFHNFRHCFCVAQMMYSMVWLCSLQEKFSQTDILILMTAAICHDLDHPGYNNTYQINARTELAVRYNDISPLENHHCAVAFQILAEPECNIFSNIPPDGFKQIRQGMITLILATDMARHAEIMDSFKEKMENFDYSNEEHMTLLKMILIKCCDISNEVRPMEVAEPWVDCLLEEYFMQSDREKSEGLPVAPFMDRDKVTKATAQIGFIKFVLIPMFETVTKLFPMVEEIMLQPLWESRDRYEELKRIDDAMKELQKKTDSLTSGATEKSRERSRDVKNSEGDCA
Chain of cGMP-inhibited 3',5'-cyclic phosphodiesterase 3B (Q13370 whole entry): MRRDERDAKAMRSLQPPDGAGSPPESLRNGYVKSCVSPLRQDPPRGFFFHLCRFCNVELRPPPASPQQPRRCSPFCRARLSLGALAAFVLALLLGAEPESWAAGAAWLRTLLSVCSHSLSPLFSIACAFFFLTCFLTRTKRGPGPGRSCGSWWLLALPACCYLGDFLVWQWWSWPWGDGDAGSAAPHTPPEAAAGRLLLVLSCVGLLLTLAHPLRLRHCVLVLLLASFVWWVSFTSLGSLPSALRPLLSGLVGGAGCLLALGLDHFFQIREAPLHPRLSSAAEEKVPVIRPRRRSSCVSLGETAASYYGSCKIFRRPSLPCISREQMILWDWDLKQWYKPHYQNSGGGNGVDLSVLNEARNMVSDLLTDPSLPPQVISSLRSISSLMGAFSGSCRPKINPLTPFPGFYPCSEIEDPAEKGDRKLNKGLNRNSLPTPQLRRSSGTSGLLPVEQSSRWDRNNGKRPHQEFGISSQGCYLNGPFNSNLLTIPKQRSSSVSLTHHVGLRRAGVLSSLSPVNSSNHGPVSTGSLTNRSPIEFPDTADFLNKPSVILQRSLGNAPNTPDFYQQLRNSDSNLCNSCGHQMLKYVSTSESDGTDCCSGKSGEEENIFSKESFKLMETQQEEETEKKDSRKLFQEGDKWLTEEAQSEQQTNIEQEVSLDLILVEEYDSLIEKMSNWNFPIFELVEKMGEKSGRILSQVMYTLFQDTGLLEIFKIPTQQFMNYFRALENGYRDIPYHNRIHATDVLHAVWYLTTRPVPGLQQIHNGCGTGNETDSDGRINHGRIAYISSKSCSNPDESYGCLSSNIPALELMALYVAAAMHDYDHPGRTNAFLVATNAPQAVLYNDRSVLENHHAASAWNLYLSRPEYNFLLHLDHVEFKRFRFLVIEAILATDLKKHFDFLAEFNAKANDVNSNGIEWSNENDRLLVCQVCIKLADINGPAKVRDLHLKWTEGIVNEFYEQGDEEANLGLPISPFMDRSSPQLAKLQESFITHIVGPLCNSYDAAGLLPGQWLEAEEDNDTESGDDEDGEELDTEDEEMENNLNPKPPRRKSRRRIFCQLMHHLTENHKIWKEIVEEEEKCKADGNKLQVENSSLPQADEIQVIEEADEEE

## CS(=O)(=O)NC(=O)c1ccc(-c2c(C#Cc3ccc4ccccc4n3)nc3c(N4CCOCC4)ccnn23)cn1
[1]
  IC50: 2.1 nM
[2]
  Kp at 2 h: 0.01

## O=C(O)C1CCN(c2ccc(-c3c(/C=C/c4ccc5ccccc5n4)nc4c(N5CCOCC5)ccnn34)cc2)CC1
[1]
  IC50: 4.4 nM
[2]
  Kp at 2 h: 0.02

## O=C(O)c1ccc(-c2c([C@H]3C[C@H](c4ccc5ccccc5n4)C3)nc3c(N4CCOCC4)ccnn23)cc1
[1]
  IC50: 0.6 nM

## COc1ccc(Cl)cc1C(=O)NCCc1ccc(S(=O)(=O)NC(=O)NC2CCCCC2)cc1
Pancreatic islet [3]
  Activity: Active

## CC(=O)NS(=O)(=O)c1ccc(-c2c(/C=C/c3ccc4ccccc4n3)nc3c(N4CCOCC4)ccnn23)cc1
[1]
  IC50: 2.2 nM

## Oc1ncn(-c2ccc(-c3c(/C=C/c4ccc5ccccc5n4)nc4c(N5CCOCC5)ccnn34)cc2)n1
[1]
  IC50: 7.4 nM

## Oc1nc(O)c(-c2ccc(-c3c(/C=C/c4ccc5ccccc5n4)nc4c(N5CCOCC5)ccnn34)cc2)o1
[1]
  IC50: 8.5 nM
[2]
  Kp at 2 h: 0.01

## NS(=O)(=O)N1CCN(c2c(CSc3ccc4ccccc4n3)nc3c(N4CCOCC4)ccnn23)CC1
[1]
  IC50: 13.8 nM
[2]
  Kp at 2 h: 0.31

## O=C(O)c1ccc(-c2c(/C=C/c3ccc4ccccc4n3)nc3c(N4CCOCC4)ccnn23)cc1
Rattus norvegicus [4]
  Activity: inactive
Cytochrome P450 1A2
  IC50: > 10000 nM
[5]
  IC50: 4200 nM
Homo sapiens [6]
  Ratio IC50: 200
[7]
  Stability: Stable
[8]
  Activity: Non-Toxic
[9]
  IC50: 3000 nM
Homo sapiens [10]
  Ratio IC50: 200
Cytochrome P450 2C9
  IC50: > 10000 nM
[11]
  Cmax: 2990 ng/mL
Mus musculus
  Activity: inactive
[12]
  Stability: Stable
Homo sapiens [13]
  Ratio IC50: 200
[14]
  IC50: 5400 nM
[1]
  IC50: 1.5 to 2 nM
[15]
  IC50: 6600 nM
[16]
  clearance: 3.3 mL/min/kg
Cytochrome P450 2C19
  IC50: > 10000 nM
Homo sapiens [17]
  Ratio IC50: 200
Cytochrome P450 3A4
  IC50: > 10000 nM
Homo sapiens [18]
  Ratio IC50: 200
[19]
  Stability: Stable
[20]
  IC50: 4000 nM
Rattus norvegicus [21]
  Activity: inactive
[22]
  Stability: Stable
[23]
  Vd: 0.47 L/kg
[24]
  Stability: Stable
Pancreatic islet [3]
  Activity: Active
Rattus norvegicus [25]
  Activity: inactive
[26]
  half-life: 6 to 6.1 h
Homo sapiens [27]
  Ratio IC50: 200
[28]
  IC50: 6600 nM
[29]
  IC50: 5900 nM
[30]
  inhibition (INH): Not Active
[31]
  bioavailability: 44%
Homo sapiens [32]
  Ratio IC50: 200
Cytochrome P450 2D6
  IC50: > 10000 nM
[33]
  IC50: > 10000 nM

## c1ccc2nc(SCc3nc4c(N5CCOCC5)ccnn4c3-c3ccc(N4CCNCC4)nc3)ccc2c1
[2]
  Kp at 2 h: 0.82

## O=C(O)CCc1ccc(-c2c([C@H]3C[C@H](c4ccc5ccccc5n4)C3)nc3c(N4CCOCC4)ccnn23)cc1
[1]
  IC50: 2.4 nM

## c1ccc2nc(Cc3nc4c(N5CCOCC5)ccnn4c3-c3ccc(N4CCNCC4)nc3)ccc2c1
[1]
  IC50: 123 nM
[2]
  Kp at 2 h: 0.45

## O=C(O)C1CCN(c2ccc(-c3c([C@H]4C[C@H](c5ccc6ccccc6n5)C4)nc4c(N5CCOCC5)ccnn34)cc2)CC1
[1]
  IC50: 3.2 nM
[2]
  Kp at 2 h: 0.02

## N=C(N)NCCC[C@H](N)C(=O)O
Pancreatic islet [34]
  Activity: Active

## O=C(O)c1ccc(-c2c(CCc3ccc4ccccc4n3)nc3c(N4CCOCC4)ccnn23)cc1
[1]
  IC50: 1.2 nM

## O=c1[nH]c(-c2ccc(-c3c(/C=C/c4ccc5ccccc5n4)nc4c(N5CCOCC5)ccnn34)cc2)no1
[1]
  IC50: 3.3 nM

## [Cl-].[K+]
Pancreatic islet [35]
  Activity: Active

## OC[C@H]1OC(O)[C@H](O)[C@@H](O)[C@@H]1O (stereo partly specified)
Pancreatic islet [36]
  Activity: Active
